Laboratory results as given in paper PMC11575396, “Activity and cryo-EM structure of the polymerase domain of the human norovirus ProPol precursor” (Journal of Virology, 2024).
Structures can show the parent of a compound that is named as a salt. Where two headings read alike, the source gives them in different places. Marks after values point to notes of the source that are not given here.

Legend:
GII Pol [1] = target: T1, GII Pol (Norovirus Hu/GII.4/Sydney/NSW0514/2012/AU, UniProt K4L8Z7); assay: Steady-state kinetics of de novo polymerase activity (PicoGreen); assay type: biochemical, Human norovirus GII.4 Sydney 2012; settings: (95% CI)
Experimental: (§1) De novo polymerase activity was measured by monitoring the formation of dsRNA from a single-stranded homopolymeric RNA template using PicoGreen as described previously ([69]). Optimal pH (range of 7.0–8.0), concentrations of MnCl2 (2.5 mM), and DTT (5 mM) for HuNV were previously established ([17], [52]). Concentrations of NaCl in the final polymerase reaction were maintained below 10 mM ([17]).
(§2) Standard reactions were performed in 25 µL, containing 5 mM DTT, 2.5 mM MnCl2, 20 ng/µL RNA template, 0.5 mM NTP in 20 mM Tris pH 7.5. Reactions were initiated with the indicated concentration of enzyme and allowed to proceed for a set period at 37°C before being terminated with 10 mM EDTA. PicoGreen (1:350 dilution) (Invitrogen, Waltham, MA, USA) was added to bind the dsRNA, and fluorescence was measured on a Varioskan Flash (Thermo Fisher Scientific, Waltham, MA, USA) plate reader with excitation at 480 nm and emission at 520 nm.
(§3) Kinetics of nucleotide incorporation by polymerase proteins was analyzed by titrating NTP concentration under standard reaction conditions for the linear time period of the enzyme. Kinetics of RNA template utilization was analyzed in the same manner but with titration of the homopolymeric template. The velocity of the reaction against substrate concentration was plotted, and the kinetic parameters were determined by non-linear regression using the Michaelis-Menten model in GraphPad Prism version 9.2.0 (La Jolla, CA, USA). All enzyme kinetics was performed with three independent preparations of protein, with triplicate wells for each replicate.

GII ProPol [2] = target: T2, GII ProPol (Norovirus Hu/GII.4/Sydney/NSW0514/2012/AU, UniProt K4L8Z7, E1189A); assay: as above; assay type: biochemical, Human norovirus GII.4 Sydney 2012
GII ProPol [3] = target: T2, GII ProPol; assay: as above; assay type: biochemical, Human norovirus GII.4 Sydney 2012; settings: (95% CI)
Experimental: as §1, §2, §3

GI Pol [4] = target: T3, GI Pol (Southampton virus, UniProt Q04544); assay: as above; assay type: biochemical, Human norovirus GI Southampton; settings: GI Pol 75 nM, (95% CI)
Experimental: as §1, §2, §3

GI ProPol [5] = target: T4, GI ProPol (Southampton virus, UniProt Q04544, E1280A); assay: as above; assay type: biochemical, Human norovirus GI Southampton; settings: GI ProPol 250 nM, (95% CI)
Experimental: as §1, §2, §3

GII Pol [6] = target: T1, GII Pol; assay: biochemical; settings: for IC50: read-out: IC50 polymerase activity
GII ProPol [7] = target: T2, GII ProPol; assay: biochemical; parameters: species or system Human norovirus GII.4 Sydney 2012
GII ProPol [8] = target: T2, GII ProPol; assay: FRET protease assay; assay type: biochemical, Human norovirus GII.4 Sydney 2012
Text: (§4) A fluorescent resonance energy transfer assay was used to measure the activities of Pro and ProPol as described in reference ([46]). The peptide substrate, 5(6)-carboxyfluorescein (FAM)-[…]-Dabcyl utilized in reactions, was based on the NS1-2/NS3 cleavage site of HuNV GII.4 Sydney 2012, and the scissile bond is shown in bold.

GII Pro = assay: FRET protease assay; assay type: biochemical, Human norovirus GII.4 Sydney 2012; settings: normalized to 0-µM inhibitor control
Text: as §4

norovirus Pro = tested on: norovirus Pro; parameters: method as in PMID 32321856, PMID 38005879; settings: read-out: IC50 protease activity; cited from earlier work
GI Pol [9] = target: T3, GI Pol; assay: De novo polymerase inhibition assay (PicoGreen dsRNA formation); assay type: biochemical
GI ProPol [10] = target: T4, GI ProPol; assay: as above; assay type: biochemical, Human norovirus GI Southampton
GII Pol [11] = tested on: GII Pol; parameters: method as in PMID 24316032, PMID 31804593, PMID 30584800; settings: read-out: IC50 polymerase; cited from earlier work
[12] = GII ProPol 1 µM, ATP 0 to 2000 µM, 80 ng/µL poly(U), (95% CI)
[13] = GTP 0 to 1,000 µM, 20 ng/µL poly(C)
[14] = 0, 3 and 30 µM, poly(C) template
[15] = GII ProPol 2 µM, poly(A) 0 to 400 ng/µL, 0.5 mM UTP, 60 min
[16] = GII Pol 35 nM, poly(C) 0 to 80 ng/µL, 0.5 mM GTP
[17] = GII ProPol 35 nM, poly(C) 0 to 80 ng/µL, 0.5 mM GTP
[18] = poly(C) 0 to 80 ng/µL, 0.5 mM GTP
[19] = GII Pol 2 µM, poly(U) 0 to 160 ng/µL, 0.5 mM ATP, 20 min

With Nc1ncnc2c1ncn2[C@@H]1O[C@H](COP(=O)(O)OP(=O)(O)OP(=O)(O)O)[C@@H](O)[C@H]1O [ATP] as the compound, how does the “kcat ATP” value (GII Pol [1]; GII Pol 2 µM, ATP 0 to 2000 µM, 80 ng/µL poly(U)) read?
Its value is 0.3 (0.2–0.33) s^−1.

And the Km (GII Pol [1]; GII Pol 2 µM, ATP 0 to 2000 µM, 80 ng/µL poly(U), read-out: Km ATP)?
The Km was 416 µM.

What about the Km (GII ProPol [2]; [12]) of the same compound?
The Km was 484 µM.

And the “kcat ATP” value (GII ProPol [2]; [12])?
The value was 0.6 (0.5–0.7) s^−1.

Which results are given for Nc1nc2c(ncn2[C@@H]2O[C@H](COP(=O)(O)OP(=O)(O)OP(=O)(O)O)[C@@H](O)[C@H]2O)c(=O)[nH]1 [GTP]?
kcat GTP (GII Pol [1]; GII Pol 35 nM, GTP 0 to 500 µM, 20 ng/µL poly(C)): 1.6 (1.40–1.96) s^−1; Km (GII Pol [1]; GII Pol 35 nM, GTP 0 to 500 µM, 20 ng/µL poly(C), read-out: Km GTP): 80.3 µM; kcat GTP (GII ProPol [3]; GII ProPol 35 nM, GTP 0 to 500 µM, 20 ng/µL poly(C)): 0.78 (0.69–0.87) s^−1; Km (GII ProPol [3]; GII ProPol 35 nM, GTP 0 to 500 µM, 20 ng/µL poly(C), read-out: Km GTP): 25.3 µM; Km (GI Pol [4]; [13]): 150 µM; kcat GTP (GI Pol [4]; [13]): 1.7 (1.47–1.96) s^−1; Km (GI ProPol [5]; [13]): 91.5 µM; kcat GTP (GI ProPol [5]; [13]): 0.24 s⁻¹

For Nc1ncnc2c([C@@H]3N[C@H](COP(=O)(O)OP(=O)(O)OP(=O)(O)O)[C@@H](O)[C@H]3O)c[nH]c12 [Gal-TP, galidesivir triphosphate], which IC50 (GII Pol [6]; GII Pol 2 µM, 8 ng/µL poly(U) template, 400 µM ATP) is on record?
The IC50 was 154 µM.

And the IC50 (GII ProPol [7])?
Its IC50 is 247 µM.

And the “fold difference between the IC50 values (GII ProPol vs GII Pol)” value (GII ProPol [7]; poly(U) template)?
The value was 1.6 fold.

And the “protease activity in the presence of inhibitor” value (“protease activity … of inhibitor” for short) (GII ProPol [8]; 30 µM inhibitor)?
The value was “observable decrease in ProPol activity”.

And the “protease activity … of inhibitor” value (GII ProPol [8]; normalized to 0-µM inhibitor control)?
The value was “did not affect protease activity to a level of significance”.

And the “protease activity … of inhibitor” value (GII Pro)?
The value was “did not affect protease activity to a level of significance”.

With O=C(Nc1cccc(C(=O)Nc2ccc(S(=O)(=O)O)c3cc(S(=O)(=O)O)cc(S(=O)(=O)O)c23)c1)Nc1cccc(C(=O)Nc2ccc(S(=O)(=O)O)c3cc(S(=O)(=O)O)cc(S(=O)(=O)O)c23)c1 [NF023, 8,8′-[carbonylbis(imino-3,1-phenylenecarbonylimino)]bis-1,3,5-naphthalene-trisulphonic acid] as the compound, how does the “protease activity … of inhibitor” value (GII Pro) read?
The value was “not affected”.

With O=C[C@H](C[C@@H]1CCNC1=O)NC(=O)[C@H](CC1CCCCC1)NC(=O)c1cc2ccccc2[nH]1 [NV-004] as the compound, how does the IC50 (norovirus Pro) read?
The IC50 was 0.37 µM.

And the “polymerase activity in the presence of inhibitor” value (GII Pol [6]; [14])?
Its value is “no decrease in polymerase activity”.

What about the remaining activity at 30 µM (GII ProPol [7]; read-out: polymerase activity compared with 0-µM control) of the same compound?
Its remaining activity at 30 µM is 76%.

And the “polymerase activity in the presence of inhibitor” value (GI Pol [9]; [14])?
Its value is “no decrease in polymerase activity”.

For Cc1nc(/N=N/c2cc(S(=O)(=O)O)c3cc([N+](=O)[O-])cc(S(=O)(=O)O)c3c2)c(COP(=O)(O)O)c(C=O)c1O [PPNDS, pyridoxal‐5′‐phosphate‐6‐(2′‐naphthylazo‐6′‐nitro‐4′,8′‐disulfonate) tetrasodium salt], which IC50 (GI ProPol [10]) is on record?
Its IC50 is 6.8 µM.

And the IC50 (GII Pol [6])?
Its IC50 is 0.5 µM.

What about the IC50 (GII ProPol [7]) of the same compound?
Its IC50 is 3.8 µM.

What about the IC50 (GI Pol [9]; GI Pol 75 nM, 6 ng/µL poly(C) template, 150 µM GTP) of the same compound?
The IC50 was 3.4 µM.

What about the IC50 (GII Pol [11]) of the same compound?
Its IC50 is 0.45 to 1.5 µM.

What does the source list for O=c1ccn([C@@H]2O[C@H](COP(=O)(O)OP(=O)(O)OP(=O)(O)O)[C@@H](O)[C@H]2O)c(=O)[nH]1 [UTP]?
kcat UTP (GII ProPol [3]; GII ProPol 2 µM, nucleotide 0 to 2000 µM, 20 ng/µL poly(A), 60 min): 0.36 (0.32–0.41) s^−1; Km (GII ProPol [3]; GII ProPol 2 µM, nucleotide 0 to 2000 µM, 20 ng/µL poly(A), 60 min, read-out: Km UTP): 438 µM

For poly(A), which “Km poly(A)” value (GII ProPol [3]; [15]) is on record?
The value was 23.6 (19.0–29.3)^a ng/μL.

What about the “kcat poly(A)” value (GII ProPol [3]; [15]) of the same compound?
The value was 0.42 (0.39–0.45) s^−1.

Which results are given for poly(C)?
Km poly(C) (GII Pol [1]; [16]): 8.8 (6.9–11.3) ng/μL; kcat poly(C) (GII Pol [1]; [16]): 1.4 (1.3–1.5) s^−1; Km poly(C) (GII ProPol [3]; [17]): 5.9 (4.7–7.3) ng/μL; kcat poly(C) (GII ProPol [3]; [17]): 1.1 (1.0–1.2) s^−1; Km poly(C) (GI Pol [4]; [18]): 6.5 (5.2–8.0) ng/μL; kcat poly(C) (GI Pol [4]; [18]): 1.4 (1.3–1.6) s^−1; Km poly(C) (GI ProPol [5]; poly(C) 0 to 80 ng/µL, 0.5 mM GTP, 10 min 37°C): 15.6 (12.0–20.2)^a ng/μL; kcat poly(C) (GI ProPol [5]; [18]): 0.4 (0.35–0.42) s^−1

Which “Km poly(U)” value (GII Pol [1]; [19]) does the source give for poly(U) here?
The value was 29.6 (19.7–45.0) ng/μL.

What about the “kcat poly(U)” value (GII Pol [1]; [19]) of the same compound?
The value was 1.4 (1.2–1.7) s^−1.

And the “kcat poly(U)” value (GII ProPol [3]; GII ProPol 1 µM, poly(U) 0 to 160 ng/µL, 0.5 mM ATP, 20 min)?
Its value is 1.9 (1.6–2.2) s^−1.

What about the “Km poly(U)” value (GII ProPol [3]; GII ProPol 1 µM, poly(U) 0 to 160 ng/µL, 0.5 mM ATP, 20 min, Michaelis-Menten) of the same compound?
Its value is 7.9 (4.7–13.2)^a ng/μL.

What about the “Km as estimated by half Vmax” value (GII ProPol [2]; GII ProPol with poly(U), allosteric sigmoidal model) of the same compound?
The value was 6.8 ng/µL.
